Source: patent publication US20020182260A1, “Anti-inflammatory agents and methods for their preparation and use” (Cellegy Pharmaceuticals, Inc., priority 1998, published 2002)
pIC50: −log10 of the molar value. Like-named read-outs stand apart in the source and are kept apart here.

Legend:
Assay type in all cases: cell-based
[1] = test system: IL-2 production from human PBMC; test: inhibition of PHA-stimulated IL-2 production; conditions: PHA 20 μg/mL, 48 hours, positive control
Procedure: In this example, the ability of lanolin fractions to inhibit PHA-stimulated IL-2 production from human peripheral blood mononuclear cells (PBMCs) was assayed. IL-2 production from human PBMC was stimulated by phytohemagglutanin (20 μg/mL) based on a procedure described by Konno et al. (Konno S. I. et al. “Inhibition of Cytokine Production from Human Peripheral Blood Leukocytes by Anti-allergic Agents in vitro.” Eur. J. Pharmacol, 264:265-268, 1994) wherein IL-2 levels were measured 48 hours post-stimulation with a commercially available enzyme-immuno assay (EIA) kit and spectrophotometric measurements were performed with a microplate reader (MRX, Dynatech.) The various compositions of the present invention were tested at final concentrations of […], in duplicate. Dexamethasone was used as the positive control in these studies; the IC50 of dexamethasone was 5 nM. The levels of suppression caused by the test compounds are expressed as the percent decrease relative to the vehicle control values.

[2] = test system: TNF-α production by human PBMCs; test: inhibition of LPS-stimulated TNF-α production; conditions: PBMC, LPS 1 μg/mL, 24 hours, positive control
Procedure: TNF-α production by human PBMCs was stimulated using lipopolysaccharide (1 μg/mL) based on a procedure by Schindler et al. (Schindler R et al. Correlations and Interactions in the Production of Interleukin (IL)-6, IL-1, and Tumor Necrosis Factor (TNF) in Human Blood Mononuclear Cells: IL-6 Suppresses IL-1 and TNF. Blood, 75:40-47, 1990). The levels of TNF-α were measured 24 hours following LPS stimulation with a commercially available enzyme-immuno assay (EIA) kit and spectrophotometric measurements were performed with a microplate reader (MRX, Dynatech). The compositions of the present invention were tested in this study were 1, 10, and 50 μg/mL in duplicate. […] The suppression caused by test compounds is expressed as the percent decrease relative to the vehicle control value.

[3] = test system: T-lymphocytes isolated from mouse thymus; test: T-lymphocyte proliferation assay (Con A, [3H]thymidine incorporation); conditions: read-out: IC50, suppression of T-cell proliferation
Procedure: T-lymphocytes were isolated from mouse thymus by standard methods, and suspended in DMEM (see, e.g., Mishell B B and Shiigi S M, eds., “Cell Proliferation” in Selected Methods in Cellular Immunology, V, XXIX, W. H. Freeman Co., San Francisco, Calif. pp. 153-160, 1980 and Dayton et al. (1992) Mol. Pharmacol. 41: 671-676). A total of 5×10^6 cells/ml were incubated overnight at 37° C. in the presence of 3 μg/ml Con A to assess stimulation (positive score, related to 10 U/ml of rat interleukin-2) or suppression (negative score, related to control) of cell proliferation. Test substances were evaluated under these conditions at a pre-defined concentration. After overnight incubation, 2 μCi [^3H]thymidine was added to each well. Cells were harvested after an additional 48 hours incubation, and thymidine incorporation assessed by liquid scintillation counting.
All 40 fractions were subsequently tested in the ConA-induced T-cell proliferation assay, the same assay described in Example 4. Fractions providing greater than or equal to 40% suppression are considered active.

[4] = test system: B-lymphocytes isolated from mouse spleen; test: B-lymphocyte proliferation assay (LPS, [3H]thymidine incorporation); conditions: B-cell, read-out: IC50, suppression of B-cell proliferation
Procedure: B-lymphocytes were isolated from mouse spleen by standard methods, and suspended in DMEM. A total of 10^6 cells/ml were incubated overnight at 37° C. in the presence of 1 μg/ml lipopolysaccharide (LPS) to assess stimulation (positive score, related to control) or suppression (negative score, related to control) of cell proliferation. Test substances were evaluated under these conditions at a pre-defined concentration. After overnight incubation, 2 μCi [^3H]thymidine was added to each well. Cells were harvested. after an additional 48 hours incubation, and thymidine incorporation assessed by liquid scintillation counting.

**Q.** C[C@@H]1C[C@H]2[C@@H]3CCC4=CC(=O)C=C[C@]4(C)[C@@]3(F)[C@@H](O)C[C@]2(C)[C@@]1(O)C(=O)CO [dexamethasone] was tested. Which pIC50 [1] did it give?
**A.** The pIC50 was 8.30.

**Q.** And the pIC50 [2]?
**A.** The pIC50 was about 7.80.

**Q.** O=P1(N(CCCl)CCCl)NCCCO1 (stereo not drawn) [cyclophosphamide] was tested. Which pIC50 [3] did it give?
**A.** The pIC50 was under 5.00.

**Q.** And the pIC50 [4]?
**A.** The pIC50 was under 5.00.

**Q.** How did the pIC50 ([3]; positive controls) turn out when Cn1cnc([N+](=O)[O-])c1Sc1ncnc2nc[nH]c12 [azathioprine] was run?
**A.** Its pIC50 is under 5.00.

**Q.** And the pIC50 ([4]; compounds known to suppress)?
**A.** The pIC50 was under 5.00.
